By EC50 is commonly meant the midpoint of the concentration-response curve.

8 molecules from patent US12071477B2, “Anti-folate receptor alpha antibody conjugated with hemiasterlins” (SUTRO BIOPHARMA, INC., priority 2017, dated 2024) can be followed below.

Square brackets hold non-standard residues; d marks the D form. Peptide text beside a SMILES is read from it. * marks the point of attachment. Dolaproine = CO[C@@H]([C@@H]1CCCN1)[C@@H](C)C(=O)O; Dil = CC[C@H](C)[C@H](NC)[C@@H](CC(=O)O)OC; X1 = C[C@@H](N*)[C@@H](O)c1ccccc1; NMeV = CN[C@H](C(=O)O)C(C)C

The subject of data set [1] is cell lines tested (Igrov1, A549 and others). The experiment in a line: In vitro cytotoxic activity of free drugs, various cell lines. Type of data set: cell-based. The conditions noted are these: in vitro cytotoxicity studies.
Data set [2] in a line: Body weight change in rats given free drugs. It is filed as in vivo, rat. The conditions noted are these: free drug (I): two doses (0.4, 1 mg/kg); free drug (II): 0.4 mg/kg.
Data set [3] has as its system MES-SA/MX2 cells (P-glycoprotein). The experiment in a line: Free drug cell killing on PgP overexpressing MES-SA/MX2 cells with or without PgP inhibitor GF120918. Type of data set: cell-based. The source says: (§1) To evaluate if free drug (I) is specifically a substrate of P-glycoprotein (PgP), which is responsible for cisplatin-resistance in some of the ovarian cancer cell lines (Stordal et al. 2012. PLoS One 7(7)), the free drug cell killing activities were investigated on PgP overexpressing MES-SA/MX2 cell line and the parental MES-SA cells. The cell killing activity of free drug (I), free drug (II) and a control free drug (MMAE, designated “III”) on the PgP-overexpressing MES-SA/MX2 cells were reduced by different levels compared to their activity on parental MES-SA cells. The MES-SA/MX2 cells were also treated with PgP inhibitor GF120918 (5 μM) to further investigate if the observed cell killing reduction is contributed by the presence of PgP on the cell surface.

For a further data set, the system named is MC38-hFolRα tumors. Put plainly: MC38-hFolRα tumor model, combination with Avelumab. It is filed as in vivo. The following applies: ADC Molecule 4 10 or 15 mg/kg once IV; Avelumab q3dx3. The source says:
Results are illustrated in FIGS. 24 and 25.

For a further data set, the system named is MES-SA cells. Put plainly: Free drug cell killing on parental MES-SA cells. Type of data set: cell-based. The following applies: Homo sapiens, MEA-SA, No GF120918.
Source text: as §1

Data set [4] is described as follows: Pharmacokinetic profile of free drugs in Sprague-Dawley rats. It is filed as in vivo, rat. How it is done:
To assess the pharmacokinetic profile of free drug (I), female Sprague-Dawley rats (mean body weight 250 g) were given either a 0.4 mg/kg or 1 mg/kg dose by IV bolus administration (N═three animal per dose level) via an indwelling jugular vein catheter. Blood samples were collected at […], 1, 2, 8, 24, 32, 48, and 72 hour post-dose. Levels of free drug (I) and (II) were measured by LC-MS/MS and non-compartmental pharmacokinetic analysis was conducted using Phoenix WinNonlin Version 6.4 (Pharsight Corporation). The PK of free drug (I) could not be estimated due to the fact that concentrations of (I) increased from 2 to 8 hours and were undetectable thereafter.

The subject of data set [5] is FOLR1-positive Igrov1 cells. Put plainly: Secondary antibody cell killing assay (anti-human Fc nanobody-hemiasterlin) on Igrov1 cells. It is filed as cell-based. The following applies: humanized 6D1 (2060) antibodies.
Method: The internalization of the antibodies was evaluated by a secondary antibody cell killing assay on target positive cells. FOLR1-positive KB cells were obtained from ATCC, and FOLR1-positive Igrov1 cells were obtained from NIH. The cells were maintained in Ham's F-12: high glucose DMEM (50:50) (Corning, Cellgro-Mediatech) supplemented with 10% heat-inactivated fetal bovine serum (Corning, Cellgro-Mediatech, Manassas, Virginia), 1% Penicillin/Streptomycin (Corning, Cellgro-Mediatech, Manassas, Virginia) and 2 mmol/L-glutamax (Thermo Fisher Scientific, Waltham, Massachusetts). Adherent cells were washed twice with calcium and magnesium-free Hanks Balanced Salt Solution (HBSS), harvested with HYQ® TASE™ (Hyclone; Thermo Fisher Scientific, Waltham, Massachusetts) and counted by the Vi-CELL Cell Viability Analyzers (Beckman Coulter, Indianapolis, Indiana). A total of 625 cells were seeded in each well of a 384-well flat bottom white polystyrene plate. Lead antibodies were formulated at 4-fold starting concentration in the cell culture medium and filtered through Multi ScreenHTS 96-Well Filter Plates (Millipore; Billerica, Massachusetts). […] Assay plates were cultured at 37° C. in a CO2 incubator for 120 hrs before assay. For cell viability measurement, 30 μL of Cell Titer-Glog reagent (Promega Corp. Madison, WI) was added into each well, and plates were processed as per product instructions. Relative luminescence was measured on an ENVISION® plate reader (Perkin-Elmer; Waltham, MA). Relative luminescence readings were converted to percent viability using untreated cells as controls. Data was fitted with nonlinear regression analysis, using a log(inhibitor) vs. response-variable slope, 4 parameter fit with GraphPad Prism (GraphPad v 5.0, Software; San Diego, California). Data was expressed as relative cell viability (ATP content) % vs. dose of antibody.
Another data set deals with T1, human FOLR1-H1S (Homo sapiens, UniProt P15328).
T1 construct: His (printed 'H1S', read as a misprint of HIS)
Put plainly: Biacore affinity and kinetic binding analysis. The following applies: humanized 6D1 (2060) antibodies. As to the method:
Anti-Fc polyclonal antibodies were immobilized onto a CM5 chip (GE Life Sciences) using amine coupling chemistry (from Amine Coupling Kit, GE Life Sciences). The immobilization steps were carried out at a flow rate of 25 μL/min in 1×HBS-EP+buffer (GE Life Sciences; 10× Stock diluted before use). The sensor surfaces were activated for 7 min with a mixture of N-hydroxysuccinimide (NHS, 0.05 M) and 1-ethyl-3-(3-dimethylaminopropyl)-carbodiimide (EDC, 0.2 M). The anti-Fc polyclonal antibodies were injected over all 4 flow cells at a concentration of 25 μg/mL in 10 mM sodium acetate, pH 4.5, for 7 min. Ethanolamine (1 M, pH 8.5) was injected for 7 min to block any remaining activated groups. An average of 12,000 response units (RU) of capture antibody was immobilized on each flow cell.
Off-rate and kinetic binding experiments were performed at 25° C. using 1×HBS-EP+ buffer. Test and control antibodies were injected over the anti-Fc surface at concentrations of 5-10 μg/mL for 12 seconds at a flow rate of 10 μL/min on flow cells 2, 3 and 4, followed by a buffer wash for 30 seconds at the same flow rate. Kinetic characterization of antibody samples was carried out with a single concentration of antigen (for off-rate ranking) or a 1:2 dilution series of antigen (for kinetic characterization) and 1 injection of 0 nM antigen. […] Between each ligand capture and analyte binding cycle, regeneration was carried out using 2 injections of 10 mM glycine pH 2.0 for 30 seconds at 30 μL/min, followed by a 30 second buffer wash step.
The data were fit with the Biacore T200 Evaluation software, using a 1:1 Langmuir binding model. KD (affinity, nM) was determined as a ratio of the kinetic rate constants calculated from the fits of the association and dissociation phases.
(In general: Surface plasmon resonance follows binding to a sensor surface in real time, without labels.)

Where [6] appears, read: MEA-SA/MX2, GF120918 (5 μM PgP inhibitor).

T1 sequence (P15328 25-234 limits assumed): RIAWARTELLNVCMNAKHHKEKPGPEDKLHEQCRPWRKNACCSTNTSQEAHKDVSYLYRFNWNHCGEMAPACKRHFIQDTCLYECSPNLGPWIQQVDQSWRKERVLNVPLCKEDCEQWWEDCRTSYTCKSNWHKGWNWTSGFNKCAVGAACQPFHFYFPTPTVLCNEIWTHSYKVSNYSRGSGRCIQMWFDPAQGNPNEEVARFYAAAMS

On to `COc1cc2cc(c1Cl)N(C)C(=O)C[C@H](OC(=O)[C@H](C)N(C)C(=O)CCC(C)(C)S)[C@]1(C)O[C@H]1[C@H](C)[C@@H]1C[C@@](O)(NC(=O)O1)[C@H](OC)/C=C/C=C(/C)C2` [free drug (II)], for which the “cytotoxic activity of released free drugs, comparison” value in data set [1] is “comparable cytotoxic activity”. For the same molecule, in data set [2], the “effect on body weight” value was “progressive body weight loss”. The molecule also displayed an EC50 in data set [3] (setting [6]) of 1.7 nM. Besides, in data set [3] (MEA-SA/MX2, No GF120918), the response was half-maximal at 28 nM (EC50) and the Span is given as 100%.

On to “Avelumab: PD-L1 inhibitor Avelumab (clinical grade) [reference compound]”, for which the initial tumor response result in the data set with MC38-hFolRα tumors is listed as “tumor stasis until approximately day 7”.

Regarding `CC[C@H](C)[C@@H]([C@@H](CC(=O)N1CCC[C@H]1[C@H](OC)[C@@H](C)C(=O)N[C@H](C)[C@@H](O)c1ccccc1)OC)N(C)C(=O)[C@@H](NC(=O)[C@@H](NC)C(C)C)C(C)C` [free drug (III), monomethyl auristatin E] (H-[NMeV]V[Dil][Dolaproine]-X1; N-terminus and C-terminus assumed), the EC50 is 0.75 nM with MES-SA cells; 1 nM in data set [3] (setting [6]); 111 nM in data set [3] (MEA-SA/MX2, No GF120918).

As to `CN[C@H](C(=O)N[C@H](C(=O)N(C)[C@H](/C=C(\C)C(=O)O)C(C)C)C(C)(C)C)C(C)(C)c1cccc(N)c1` [free drug (I)], the “cytotoxic activity of released free drugs, comparison” value in data set [1] is given as “comparable cytotoxic activity”. Also, in data set [2], the “effect on body weight” value is “did not have an effect on the body weight”. Further, the “plasma level post dose” value in data set [4] (0.4 or 1 mg/kg IV bolus) was “undetectable at 24 hours post dose”. Moreover, the “PK of free drug (I) in rat vs. free drug (II)” value in data set [4] (rat) is recorded as “Free drug (I) has faster clearance”. Also, the EC50 in data set [3] (setting [6]) came out at 6.4 nM; in data set [3] (MEA-SA/MX2, No GF120918), 50 nM. The Span in data set [3] (MEA-SA/MX2, No GF120918) was found to be 100%.

B1: SRP2060-A06 (antibody, V domains shown)
VH: EVQLLESGGGLVQPGGSLRLSCAFSGFSLSTFGMGVGWVRQAPGKGLEWVGHIWWDDDKYYYPALKGRFTISKDNSKNTVYLQMNSLRAEDTAVYYCGRNHFPHYYGSSHWYFDVWGQGTTVTVSS
VL: DIQMTQSPSTLSASVGDRVTITCKASQDINSYLSWYQQKPGKAPKLLIYRANRLVDGVPSRFSGSGSGTEFTLTISSLQPDDFATYYCLQYDEFPYTFGGGTKVEIK
modifications: drug conjugate; Synthetic SRP2060-A06, VH; Synthetic H6D1-LC5, VL
For the molecule B1, the “Igrov 2° Antibody Cell Killing, Nb-SC239 span” value (“Igrov 2° Antibody Cell Killing” for short) in data set [5] stood at 66%.

B2: SRP2060-E05: affinity-matured humanized 6D1 antibody, VH SEQ ID NO 364, VL H6D1-LC4 (antibody, V domains shown)
VH: EVQLLESGGGLVQPGGSLRLSCAFSGFSLSTFGMGVGWVRQAPGKGLEWVSHIWWDDDKYYHPALKGRFTVSKDNSKNTVYLQMNSLRAEDTAVYYCGRNHFPHYYGSSHWYFNVWGQGTTVTVSS
VL: EIVMTQSPATLSLSPGERATLSCKASQDINSYLSWYQQKPGQAPRLLIYRANRLVDGIPARFSGSGSGTDYTLTISSLEPEDFAVYYCLQYDEFPYTFGGGTKVEIK
modifications: drug conjugate; Synthetic SRP2060-E05, VH; Synthetic H6D1-LC4, VL
For the molecule B2, the “Igrov 2° Antibody Cell Killing” value in data set [5] is 71%. Further, in the data set with human FOLR1-H1S, the Biacore kinetics ka turned out to be 541000 M⁻¹ s⁻¹ and the Biacore kinetics kd stood at 0.00158 s⁻¹.

B3: SRP2060-B01 (antibody, V domains shown)
VH: EVQLLESGGGLVQPGGSLRLSCALSGFSLSTFGMGVGWVRQATGKGLEWVSHIWWDDDKYYHPALKGRFTISKDNSKNTVHLQMNSLRAEDTAVYYCGRNHFPHYYGSSHWYFNVWGQGTTVTVSS
VL: DIQMTQSPSTLSASVGDRVTITCKASQDINSYLSWYQQKPGKAPKLLIYRANRLVDGVPSRFSGSGSGTEFTLTISSLQPDDFATYYCLQYDEFPYTFGGGTKVEIK
modifications: drug conjugate; Synthetic SRP2060-B01, VH; Synthetic H6D1-LC5, VL
For B3, the “Igrov 2° Antibody Cell Killing” value in data set [5] amounted to 76%.

B4: SRP2060-E10: affinity-matured humanized 6D1 antibody, VH SEQ ID NO 363, VL H6D1-LC4 (antibody, V domains shown)
VH: EVQLLESGGGLVQPGGSLRLSCAFSGFSLSTFGMGVGWVRQAPGKGLEWVSHIWWDDDKYYHPALKGRFTISKDNSKNTVYLQMNSLRAEDTAVYYCGRNHFPHYYGSSHWYFNVWGQGTTVTVSS
VL: EIVMTQSPATLSLSPGERATLSCKASQDINSYLSWYQQKPGQAPRLLIYRANRLVDGIPARFSGSGSGTDYTLTISSLEPEDFAVYYCLQYDEFPYTFGGGTKVEIK
modifications: drug conjugate; Synthetic SRP2060-E10, VH; Synthetic H6D1-LC4, VL
B4: the “Igrov 2° Antibody Cell Killing” value in data set [5] was 68%. In the data set with human FOLR1-H1S, this molecule registered a Biacore kinetics ka of 582000 M⁻¹ s⁻¹ and a Biacore kinetics kd of 0.0012 s⁻¹.
